{
  "source": "paper PMC10368966",
  "about": "“Safety and efficacy of AK0529 in respiratory syncytial virus‐infected infant patients: A phase 2 proof‐of‐concept trial” (Influenza and Other Respiratory Viruses, 2023)",
  "origin": "cited, not measured here",
  "key": {"RSV": {"test_system": "RSV", "set-up": "method as in PMID 32201897", "conditions": "cited from earlier work"}, "SARS-CoV-2 [1]": {"test_system": "SARS-CoV-2", "set-up": "method as in PMID 32423584", "conditions": "patients with severe COVID-19 ref 18; cited from earlier work"}, "SARS-CoV-2 [2]": {"test_system": "SARS-CoV-2", "set-up": "method as in PMID 32423584", "conditions": "cell cultures ref 18; cited from earlier work"}},
  "data": [
    {"molecule": "CS(=O)(=O)CCCn1c(Cn2c(=O)n(CC(F)(F)F)c3ccncc32)cc2cc(Cl)ccc21", "note": "[JNJ‐8678]", "values": [
      {"measurement": "length of hospital stay or time to clinical stability", "setting": "RSV", "result": "no improvements"},
      {"measurement": "reduction in RSV viral load vs placebo", "setting": "RSV", "result": "greater reduction in RSV viral load than with placebo"}
    ]},
    {"molecule": "CCC(CC)COC(=O)[C@H](C)N[P@](=O)(OC[C@H]1O[C@@](C#N)(c2ccc3c(N)ncnn23)[C@H](O)[C@@H]1O)Oc1ccccc1", "note": "[Remdesivir]", "values": [
      {"measurement": "effect on viral load", "setting": "SARS-CoV-2 [1]", "result": "no effect"},
      {"measurement": "time to clinical improvement", "setting": "SARS-CoV-2 [1]", "result": "numerically shorter"},
      {"measurement": "inhibition of SARS-CoV-2 virus replication", "setting": "SARS-CoV-2 [2]", "result": "potent inhibitor"}
    ]}
  ]
}
